Data as given in article PMC4570970 (ACS chemical biology, 2015).

Biological target: T1, 5-epi-aristolochene synthase (TEAS) (Nicotiana tabacum, UniProt Q40577)
T1 sequence (Q40577 1-548): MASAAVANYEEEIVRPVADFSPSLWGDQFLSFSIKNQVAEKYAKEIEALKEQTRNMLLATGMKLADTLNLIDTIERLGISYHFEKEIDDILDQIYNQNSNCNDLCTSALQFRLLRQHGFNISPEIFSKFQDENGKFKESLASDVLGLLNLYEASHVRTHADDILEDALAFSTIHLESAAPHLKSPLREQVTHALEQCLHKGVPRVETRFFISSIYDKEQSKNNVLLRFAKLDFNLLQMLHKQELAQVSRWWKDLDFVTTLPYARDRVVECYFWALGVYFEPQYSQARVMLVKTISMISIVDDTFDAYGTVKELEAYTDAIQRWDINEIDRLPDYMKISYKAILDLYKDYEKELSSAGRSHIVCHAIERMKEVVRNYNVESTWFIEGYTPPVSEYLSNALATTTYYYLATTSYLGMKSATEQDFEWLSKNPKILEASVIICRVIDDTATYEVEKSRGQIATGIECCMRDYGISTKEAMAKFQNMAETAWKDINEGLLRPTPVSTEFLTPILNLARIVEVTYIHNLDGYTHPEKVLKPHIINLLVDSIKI
Assay: crystal structure
Assay type: biochemical

Ki: 380 nM
Structure (SMILES): C/C(=C\COP(=O)(O)OP(=O)(O)O)CC/C=C(\C)CNc1ccccc1 [compound 4, AGPP]
